# According to article PMC6882365, “Directed evolution of the PcaV allosteric transcription factor to generate a biosensor for aromatic aldehydes” (Journal of Biological Engineering, 2019):
# Residue numbers refer to the chain shown, from its start.
# T1: Van2 (PcaV mutant) (Streptomyces coelicolor, UniProt Q9XAM6, I110V/M113S/N114A)
# T1 construct: gene SCO6704; His-TEV tag-cleaved purified protein, homodimer
# T1 sequence (Q9XAM6 1-154 I110V/M113S/N114A): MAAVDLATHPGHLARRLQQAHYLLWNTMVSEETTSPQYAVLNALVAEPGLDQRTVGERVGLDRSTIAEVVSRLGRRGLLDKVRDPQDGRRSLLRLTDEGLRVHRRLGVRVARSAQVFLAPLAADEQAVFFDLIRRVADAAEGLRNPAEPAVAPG
# T2: Van2 (Streptomyces coelicolor, UniProt Q9XAM6 1-154, I110V;M113S;N114A)
# T2 sequence: T1 sequence (Q9XAM6 1-154 I110V/M113S/N114A)
# T3: PcaV (Streptomyces coelicolor, UniProt Q9XAM6 1-154)
# T3 sequence: T1 sequence (Q9XAM6 1-154 I110V/M113S/N114A) with V110I, S113M, A114N
# B1: Rnd Probe (IR700 duplex) (dsDNA)
# DNA 1: GAGTTAGAGTACGCGTTAAACACTTCACAGAT
# DNA 2: ATCTGTGAAGTGTTTAACGCGTACTCTAACTC
# B2: PV Probe Bio (dsDNA)
# DNA 1: TTGACTATACTCAGTGCCCTGACTATGATACT
# DNA 2: AGTATCATAGTCAGGGCACTGAGTATAGTCAA
# B3: PV Probe (IR700 duplex) (dsDNA)
# DNA 1: B2 DNA 1
# DNA 2: B2 DNA 2
# Columns and labels:
# Van2 (PcaV mutant) [1] = molecular target: T4, Van2 (PcaV mutant) (Streptomyces coelicolor, UniProt Q9XAM6, I110V/M113S/N114A); experiment: cell-based; details: read-out: E. coli RARE eGFP derepression reporter, 2.5 mM
# T4 construct: gene SCO6704
# PcaV [2] = molecular target: T5, PcaV (Streptomyces coelicolor, UniProt Q9XAM6); experiment: E. coli PcaV/PPV-eGFP derepression reporter, dose response; type: cell-based
# T5 construct: gene SCO6704
# PcaV I110V = molecular target: T6, PcaV I110V (Streptomyces coelicolor, UniProt Q9XAM6, I110V); experiment: cell-based; details: read-out: Max/Min (2.5 mM induction) / PCA
# T6 construct: gene SCO6704
# Van2 (PcaV mutant) [3] = molecular target: T1, Van2 (PcaV mutant); experiment: EMSA titration ([…]), disruption of the Van2-PV DNA complex; no response in cells; type: biochemical
# PcaV N114A = molecular target: T7, PcaV N114A (Streptomyces coelicolor, UniProt Q9XAM6, N114A); experiment: cell-based; details: read-out: Max/Min (2.5 mM induction) / PCA
# T7 construct: gene SCO6704
# [4] = molecular target: PcaV allosteric transcription factor from Streptomyces coelicolor (Streptomyces coelicolor); experiment: SEC-MALS; 0.75 mL at 1.5 mg/mL loaded on Superdex 10/300 GL; in the absence of the effector
# [5] = molecular target: Van2 aTF (PcaV I110V M113S N114A) (Streptomyces coelicolor); experiment: as above
# Van2 [6] = molecular target: T2, Van2; experiment: EMSA; no effector; 500 nM protein, 500 pM probe; SPR: 10 mM Hepes, 150 mM NaCl, pH 7.4 (temperature not stated); EMSA: 50 mM Tris-HCl, 50 mM KCl, 5 mM MgCl2, 1 mM EDTA, 5% glycerol, 0.1 ug poly(dI-dC), 1 mM DTT, 30 C 20 min (+30 min with ligand); details: protein: recombinant; tags: N-terminal His-TEV, removed by TEV protease; chain copies: 2; label: 5' IRD700 on both strands; blunt
# Van2 [7] = molecular target: T2, Van2; experiment: SPR; no effector; 9.4-600 nM protein; SPR: 10 mM Hepes, 150 mM NaCl, pH 7.4 (temperature not stated); EMSA: 50 mM Tris-HCl, 50 mM KCl, 5 mM MgCl2, 1 mM EDTA, 5% glycerol, 0.1 ug poly(dI-dC), 1 mM DTT, 30 C 20 min (+30 min with ligand); details: protein: recombinant; tags: N-terminal His-TEV, removed by TEV protease; chain copies: 2; label: 5' biotin on strand 1; blunt
# PcaV [8] = molecular target: T3, PcaV; experiment: EMSA; no effector; 250 nM protein, 500 pM probe; SPR: 10 mM Hepes, 150 mM NaCl, pH 7.4 (temperature not stated); EMSA: 50 mM Tris-HCl, 50 mM KCl, 5 mM MgCl2, 1 mM EDTA, 5% glycerol, 0.1 ug poly(dI-dC), 1 mM DTT, 30 C 20 min (+30 min with ligand); details: protein: recombinant; tags: N-terminal His-TEV, removed by TEV protease; chain copies: 2; label: 5' IRD700 on both strands; blunt
molecule,measurement,setting,value
O=Cc1ccccc1O [2-hydroxybenzaldehyde],fold induction at 2500 µM,Van2 (PcaV mutant) [1],> 6
"O=Cc1ccc(O)c(O)c1 [3,4-dihydroxybenzaldehyde]",fold induction at 2500 µM,Van2 (PcaV mutant) [1],> 6
"O=C(O)c1cccc(O)c1 [3HB, 3-hydroxybenzoic acid]","E. coli PcaV/PPV-eGFP derepression reporter, dose response",PcaV [2],"3-hydroxybenzoic acid (3HB) and 4-hydroxybenzoic acid (4HB), as observed by fitting the dose response curves"
Cc1cc(C=O)ccc1O [4-hydroxy-3-methylbenzaldehyde],fold induction at 2500 µM,Van2 (PcaV mutant) [1],> 6
"O=C(O)c1ccc(O)cc1 [4HB, 4-hydroxybenzoic acid]","E. coli PcaV/PPV-eGFP derepression reporter, dose response",PcaV [2],"3-hydroxybenzoic acid (3HB) and 4-hydroxybenzoic acid (4HB), as observed by fitting the dose response curves"
"O=C(O)c1ccc(O)c(O)c1 [PCA, 3,4-dihydroxybenzoic acid]",fold induction at 2500 µM,PcaV I110V,304
same,"EMSA titration (2.5-12.5 mM), disruption of the Van2-PV DNA complex; no response",Van2 (PcaV mutant) [3],Van2 responds to vanillin but is still responsive to PCA in contradiction with the observed in vivo biosensor performance
same,fold induction at 2500 µM,PcaV N114A,18
PcaV allosteric transcription factor from Streptomyces coelicolor (natural protein),stoichiometry N,[4],2
Van2 aTF (PcaV I110V M113S N114A),stoichiometry N,[5],2
B1,binding result,Van2 [6],no binding
B2,Kd,Van2 [7],86.7 nM
B3,binding result,PcaV [8],binds
